Assay results: patent US8946144B2, “Phosphonated glycopeptide and lipoglycopeptide antibiotics and uses thereof for the prevention and treatment of bone and joint infections” (The Medicines Company, priority 2006, dated 2015)
Converted amounts (≈) assume the structure as drawn.

Assays:
[1] = tested on: S. aureus strain ATCC13709; experiment: Antibacterial susceptibility (MIC) in CAMHB; format: cell-based; settings: S. aureus ATCC 13709; cation adjusted Mueller-Hinton broth; 37° C., 18 h
Method: (§1) Susceptibility of S. aureus strain ATCC13709 to the commercial antibiotics and synthesized compounds was determined by following the guidelines set by the Clinical and Laboratory Standards Institute (formerly the National Committee for Clinical Laboratory Standards) (M26-A). Compounds were diluted two-fold serially in either DMSO (Vancomycin 4, Oritavancin 8, compounds 10, 31, 33, 39, 44, 50, 60, 65), DMF (compounds 18 and 21) or in PBS (compound 6) and transferred to cation-adjusted Mueller Hinton broth (CAMHB; Becton Dickinson). 50 μL of compounds diluted in CAMHB was mixed with […] of bacteria diluted in CAMHB in 96-well microtiter plates. The final number of micro-organisms in the assay was 5×10^5 c.f.u. per mL and the final concentration of DMSO or DMF in the assay, if present, was 1.25%. Assays were set up in duplicate and incubated at 37° C. for 18 h. The concentration of compound that inhibited visible growth was reported as the minimum inhibitory concentration (MIC).

[2] = Regeneration of parent drug from bone powder-bound prodrug; format: in vitro ADME; settings: 24 h incubation, 37° C.
Method: Amounts of parent drug “regenerated” from the phosphonated prodrug were measured as follows. Washed bone powder-bound prodrugs from the above experiment were resuspended in 400 μL PBS+2% DMSO or in 400 μL 50% (v/v in PBS+2% DMSO) human or rat serum. The suspension was incubated overnight at 37° C., centrifuged at 13,000 rpm for 2 min and the supernatant was recovered. The amount of regenerated parent drug in the supernatant was determined by measurements using the microbiological assays that were previously described for the prodrugs themselves. The amount of released drug from prodrug was deduced from standard curves of known amounts of parent drug that were used as reference for each experiment. The amount of regenerated drug assessed by this bioassay was corroborated by MIC determination. The percentage of drug regenerated in PBS or serum after the overnight incubation (Table 2) was deduced from the difference between the amount of bound prodrug and the amount of regenerated drug (not shown).

[3] = tested on: S. aureus strain ATCC13709; experiment: Antibacterial susceptibility (MIC) in the presence of 50% serum; format: cell-based; settings: S. aureus ATCC 13709
Method: as §1
Susceptibility testing experiments were also carried out in the presence of serum. These experiments were carried out similar to the susceptibility testing with the following modifications. 75 μL of compounds diluted in CAMHB was mixed with 75 μL of bacteria diluted in 100% serum from any given source (commercial pooled mouse serum (MS) and human serum (HS), Equitech-Bio Inc.). The final concentration of animal serum in the assay was 50% and the concentrations of all other components were identical to those described for susceptibility testing.

Row | Compound | Minimum inhibitory concentration, CAMHB [1] | % Conversion (prodrug converted to parent drug) ([2]; 50% rat serum) | % Conversion (prodrug converted to parent drug) ([2]; PBS) | Minimum inhibitory concentration, CAMHB + 50% Human Serum [3] | Minimum inhibitory concentration, CAMHB + 50% Mouse Serum [3] | Minimum inhibitory concentration, CAMHB + 50% Rat Serum [3]
1 | CC(C)C[C@H](C(=O)N[C@H]1C(=O)N[C@@H](CC(N)=O)C(=O)N[C@H]2C(=O)N[C@H]3C(=O)N[C@H](C(=O)N[C@H](C(=O)O)c4cc(O)cc(O)c4-c4cc3ccc4O)[C@H](O[C@H]3C[C@](C)(N)[C@@H](O)[C@H](C)O3)c3ccc(c(Cl)c3)Oc3cc2cc(c3O[C@@H]2O[C@H](CO)[C@@H](O)[C@H](O)[C@H]2O[C@H]2C[C@](C)(NCc3ccc(-c4ccc(Cl)cc4)cc3)[C@@H](O)[C@H](C)O2)Oc2ccc(cc2Cl)[C@H]1O)N(C)C(=O)OCOC(=O)CCCC(P(=O)(O)O)P(=O)(O)O [Compound 60] | 32 µg/mL (≈ 15.2 µM) | 0.05% | <LOD | >32 µg/mL | 32 µg/mL | 32 µg/mL
2 | CC(C)C[C@H](C(=O)N[C@H]1C(=O)N[C@@H](CC(N)=O)C(=O)N[C@H]2C(=O)N[C@H]3C(=O)N[C@H](C(=O)N[C@H](C(=O)O)c4cc(O)cc(O)c4-c4cc3ccc4O)[C@H](O[C@H]3C[C@](C)(N)[C@@H](O)[C@H](C)O3)c3ccc(c(Cl)c3)Oc3cc2cc(c3O[C@@H]2O[C@H](CO)[C@@H](O)[C@H](O)[C@H]2O[C@H]2C[C@](C)(NCc3ccc(-c4ccc(Cl)cc4)cc3)[C@@H](O)[C@H](C)O2)Oc2ccc(cc2Cl)[C@H]1O)N(C)C(=O)OCOC(=O)CCC(P(=O)(O)O)P(=O)(O)O.O=C(O)C(F)(F)F.O=C(O)C(F)(F)F [Compound 65] | 8 µg/mL | 26.4% | 0.2% | 4 µg/mL | 0.5 µg/mL | 1 µg/mL
